# Results: patent US12440529B2, “Topical Croton lechleri compositions and their use in the treatment of a bacterial colonization or primary or secondary bacterial infection of an underlying skin disorder” (ALPHYN BIOLOGICS, INC., priority 2020, dated 2025)
# Experiments:
# [1] = system: Enterococcus faecalis (ATCC 29212) (EFAECL); experiment: Agar Well Diffusion Assay (Kirby-Bauer disks), zone of inhibition; type: cell-based; settings: control antibiotic K-B disk
# Description: Isolates were subcultured the day before the Agar Well Diffusion Assay was performed. On the day of the assay, a bacterial suspension (0.08-0.12 MacFarland units) of each bacteria isolate was made in Trypticase Soy Broth (TSB), and these suspensions were used to plate a lawn of bacterial organisms on Mueller-Hinton agar or Mueller-Hinton sheep's blood agar. […] The next day, the width of the zone of growth inhibition surrounding each K-B disk was recorded (in mm). The larger the number, the greater the zone of inhibition, and the greater the inhibition of growth of the target organisms.
# Therefore, all dilutions were made into DMSO and a K-B disk containing 25 uL DMSO was included in all experiments as a vehicle control.
# When assessing antibiotic effects in a K-B type test, the minimum zone of inhibition for considering a positive test varies depending on the antibiotic tested with anything more than 0 mm considered positive in some cases or as much as 10 mm or more needed for others.
# [2] = system: cells; settings: Chen, Planta Med. 60 (1994), cited from earlier work; for effect on cell proliferation: compounds obtained through extraction; for healing effects: Ecuadorian sap
# [3] = system: Pseudomonas aeruginosa; experiment: In vitro MIC/MBC assay (2-fold microdilution), multi-drug resistant strain panel; type: cell-based
# Text: Of the 20, 5 are known to be Verona integron-encoded metallo-beta-lactamase (VIM)—producing Pseudomonas aeruginosa which are drug resistant strains of Pseudomonas aeruginosa, another 5 are know to be Klebsiella pneumoniae carbapenemase (KPC) producing Pseudomonas aeruginosa strains which are drug resistant strains of Pseudomonas aeruginosa, and 4 are known to be IMP-Type Metallo-β-Lactamase (IMP))—producing Pseudomonas aeruginosa which are drug resistant strains of Pseudomonas aeruginosa. The 6 remaining strains are known to be antibiotic resistant and are listed simply as MDR strains. […]
# [4] = system: MRSA strains (Mupirocin-resistant and Mupirocin-susceptible); experiment: In vitro MIC/MBC assay (2-fold microdilution), S. aureus strain panel; type: cell-based, Staphylococcus aureus; settings: for MIC: Staphylococcus aureus
# Description: (§1) AB-101 was tested against an extensive variety of bacterial strains, including Mupirocin-resistant MRSA, Mupirocin-resistant MSSA, Mupirocin-susceptible MSSA, Mupirocin-susceptible MRSA, and other skin-related pathogens.
# (§2) Measures included the minimum inhibitory concentration (MIC) which is the lowest concentration of AB-101 that prevents visible growth of the bacterium or pathogen, and minimum bactericidal concentration (MBC) which is the lowest concentration of an antibacterial agent required to kill a bacterium.
# (§3) AB-101 Lots 01, 02 and a purified extract of taspine for MIC are compared. […] Taspine may have additional synergistic benefits to be included in the whole extract in the final product for the effective treatment of a bacterial colonization or primary or secondary bacterial infection of an underlying skin disorder.
# as §3, with “taspine for MBC are compared.” for “taspine for MIC are compared.”, “treatment of bacterial colonization” for “treatment of a bacterial colonization”
# (§4) Tables 26 and 27 show an assay whose setup is same as what was used for screening S. aureus and P. aeruginosa (i.e. 2-fold microdilution). The 20 strains of S. pyogenes assayed were selected from the two rounds of antibiotic screening to identify Erythromycin and Tetracycline resistant strains. […] For this feasibility study, AB-101 Lot 1 and Lot 2 was used. P. aeruginosa ATCC 27853 was tested as a positive control for AB-101 activity.
# [5] = system: MSSA strains (Mupirocin-resistant and Mupirocin-susceptible; QC ATCC 29213); experiment: as above; type: cell-based, Staphylococcus aureus
# Description: as §1, §2, §3
# as §3, with “taspine for MBC are compared.” for “taspine for MIC are compared.”, “treatment of bacterial colonization” for “treatment of a bacterial colonization”
# as §4
compound,measurement,setting,value
"CC1(C)S[C@@H]2[C@H](NC(=O)[C@H](N)c3ccccc3)C(=O)N2[C@H]1C(=O)O [AMP, Ampicillin]",Zone of Inhibition,[1],AMP 8 MM
"Oc1cc(O)c2c(c1)O[C@H](c1ccc(O)c(O)c1)[C@@H](O)C2 [Catechin, catechin]",effect on cell proliferation,[2],little effect
C[C@@H](O)[C@H]1C(=O)N2C(C(=O)O)=C(SCCN=CN)C[C@H]12 [Imipenem],MIC,"[3]; ATCC27853, strain ATCC 27853, QC strain",2 µg/mL
same,MIC,"[3]; strain CDC 0064, MDR",> 64 µg/mL
same,MIC,"[3]; strain CDC 0092, IMP",> 64 µg/mL
same,MIC,"[3]; strain CDC 0103, IMP",> 64 µg/mL
same,MIC,"[3]; strain CDC 0230, VIM",> 64 µg/mL
same,MIC,"[3]; strain CDC 0231, KPC",> 64 µg/mL
same,MIC,"[3]; strain CDC 0239, VIM",> 64 µg/mL
same,MIC,"[3]; strain CDC 0241, IMP",> 64 µg/mL
same,MIC,"[3]; strain CDC 0246, MDR",> 64 µg/mL
same,MIC,"[3]; strain CDC 0250, MDR",> 64 µg/mL
same,MIC,"[3]; strain CDC 0254, VIM",> 64 µg/mL
same,MIC,"[3]; strain CDC 0255, VIM",> 64 µg/mL
same,MIC,"[3]; strain CDC 0353, MDR",16 µg/mL
same,MIC,"[3]; strain CDC 0356, KPC",> 64 µg/mL
same,MIC,"[3]; strain CDC 0357, MDR",16 µg/mL
same,MIC,"[3]; strain CDC 0439, IMP",> 64 µg/mL
same,MIC,"[3]; strain CDC 0441, KPC",> 64 µg/mL
same,MIC,"[3]; strain CDC 0508, MDR",16 µg/mL
same,MIC,"[3]; strain CDC 0509, VIM",> 64 µg/mL
same,MIC,"[3]; strain CDC 0516, KPC",> 64 µg/mL
same,MIC,"[3]; strain CDC 0518, KPC",> 64 µg/mL
COc1cccc(OC)c1C(=O)N[C@@H]1C(=O)N2[C@@H]1SC(C)(C)[C@@H]2C(=O)O [Methicillin],MIC,"[4]; strain 1674607, MupirocinR",> 64 µg/mL
same,MIC,"[4]; strain 1674611, MupirocinR",64 µg/mL
same,MIC,"[4]; strain CDC 218, MupirocinR",> 64 µg/mL
same,MIC,"[4]; strain CDC 224, MupirocinR",> 64 µg/mL
same,MIC,"[4]; strain CDC 227, MupirocinS",64 µg/mL
same,MIC,"[4]; strain CDC 228, MupirocinR",64 µg/mL
same,MIC,"[4]; strain CDC 480, MupirocinS",32 to 64 µg/mL
same,MIC,"[4]; strain CDC 481, MupirocinS",16 to 32 µg/mL
same,MIC,"[4]; strain CDC 482, MupirocinS",8 to 32 µg/mL
same,MIC,"[4]; strain CDC 483, MupirocinS",64 µg/mL
same,MIC,"[5]; Staphylococcus aureus, strain 1674606, MupirocinR, MSSA",2 to 8 µg/mL
same,MIC,"[5]; Staphylococcus aureus, strain 1674606; MupirocinR, MSSA",2 to 8 µg/mL
same,MIC,"[5]; Staphylococcus aureus, strain 1674608, MupirocinR, MSSA",2 to 4 µg/mL
same,MIC,"[5]; Staphylococcus aureus, strain 1674608; MupirocinR, MSSA",2 to 4 µg/mL
same,MIC,"[5]; Staphylococcus aureus, strain ATCC 29213, QC control",1 to 2 µg/mL
same,MIC,"[5]; Staphylococcus aureus, strain ATCC 29213; QC control",1 to 2 µg/mL
same,MIC,"[5]; Staphylococcus aureus, strain CDC 461, MupirocinS, MSSA",4 to 8 µg/mL
same,MIC,"[5]; Staphylococcus aureus, strain CDC 461; MupirocinS, MSSA",4 to 8 µg/mL
same,MIC,"[5]; Staphylococcus aureus, strain CDC 462, MupirocinS, MSSA",8 µg/mL
same,MIC,"[5]; Staphylococcus aureus, strain CDC 462; MupirocinS, MSSA",8 µg/mL
same,MIC,"[5]; Staphylococcus aureus, strain CDC 463, MupirocinS, MSSA",8 to 16 µg/mL
same,MIC,"[5]; Staphylococcus aureus, strain CDC 463; MupirocinS, MSSA",8 to 16 µg/mL
same,MIC,"[5]; Staphylococcus aureus, strain CDC 464, MupirocinS, MSSA",2 µg/mL
same,MIC,"[5]; Staphylococcus aureus, strain CDC 464; MupirocinS, MSSA",2 µg/mL
same,MIC,"[5]; Staphylococcus aureus, strain CDC 484, MupirocinS, MSSA",2 µg/mL
same,MIC,"[5]; Staphylococcus aureus, strain CDC 484; MupirocinS, MSSA",2 µg/mL
same,MIC,"[5]; Staphylococcus aureus, strain CDC 485, MupirocinS, MSSA",2 to 4 µg/mL
same,MIC,"[5]; Staphylococcus aureus, strain CDC 485; MupirocinS, MSSA",2 to 4 µg/mL
COc1ccc([C@H]2Oc3c(OC)cc(CCCO)cc3[C@@H]2CO)cc1OC [dimethylcedrusin],healing effects,[2],little healing effects
Oc1cc(O)c2c(c1)O[C@H](c1cc(O)c(O)c(O)c1)[C@@H](O)C2 [gallocatechin],effect on cell proliferation,[2],slightly stimulating
COc1ccc2c(=O)oc3c(OC)cc(CCN(C)C)c4c(=O)oc1c2c34 [taspine],activity by MBC,[4],does not have activity
same,activity by MIC,[4]; highest taspine concentration tested 10 μg/mL (50% relative to AB-101),does not have activity
same,activity by MBC,[5]; MSSA,does not have activity
same,activity by MIC,[5]; MSSA; highest taspine concentration tested 10 μg/mL (50% relative to AB-101),does not have activity
same,healing effects,[2],little healing effects
Gentamicin [GM],Zone of Inhibition,[1],GM 5 MM
epicatechin,effect on cell proliferation,[2],little effect
epigallocatechin [epigalocatechin],effect on cell proliferation,[2],slightly stimulating
